Reference: patent publication EP0531938B1, “Acrylic gel material and gel-based medical preparation for percutaneous absorption employing the same” (NITTO DENKO CORPORATION, priority 1991, dated 1993)

Test: Solubility of drug in pressure-sensitive adhesive and in liquid component
Assay type: physicochemical
Settings: percent by weight

O=[N+]([O-])O[C@H]1CO[C@H]2[C@@H]1OC[C@H]2O[N+](=O)[O-] [isosorbide dinitrate]
solubility in the pressure-sensitive adhesive (adhesive of Comparative Example 15 (95 parts 2-ethylhexyl acrylate, 5 parts acrylic acid)): 7%
solubility in isopropyl myristate: 2.1%
